Experimental data: patent US7264932B2, “Nuclease inhibitor cocktail” (Applera Corporation, priority 1999, dated 2007)

Tests used:
[1] = system: total RNase activity in pancreas lysate; test: RNaseAlert fluorescent assay, pancreas lysate; assay type: biochemical, mouse
Procedure: (§1) Flash-frozen mouse tissues (5 mg) were dounced in 50 ul of 24 mM Hepes, pH 7.2, 50 mM NaCl, 1 mM MgCl2. RNase activity was measured using Ambion's fluorescent RNaseAlert™ assay ([…] substrate, 10 ug/ml ultrapure BSA) via BMG POLARstar Optima Fluorometer according to the manufacturer's protocol. In addition to measuring total RNase activity, lysates were treated with Ap5A, heat (90 C for 10 min), or 0.5 U/ul RIP. Tissue lysate dilutions: pancreas 1:16,200; liver 1:17; thymus 1:17; kidney 1:17; spleen 1:810; lung 1:810. The data were normalized to maximum RNase activity observed in tissue lysate with kidney being the tissue with the lowest RNase activity and assigned the arbitrary unit of 1. […] However, RIP is specific to RNase A superfamily enzymes, where Ap5A, as a RNA analogue, is expected to be a more general RNase inhibitor.
Pancreatic tissue (5 mg) was dounced in 50ul of 24 mM Hepes, pH 7.2, 50 mM NaCl, 1 mM MgCl2. Diluted pancreas lysate (1:12,000) was subjected to a 1/10 volume of negatively charged SP resin. RNase activity of the clarified lysate was measured using. Ambion's fluorescent RNaseAlert™ assay (40 nM substrate, 10 ug/ml ultrapure BSA) via BMG POLARstar Optima, according to the manufacturer's instructions. Resin treatment removed >95% of total RNase activity in diluted pancreas lysate. […] In this case, inactivation is accomplished by binding of the positively-charged RNase to the negatively-charged sulfopropyl resin. Thus the RNases can be physically removed from the tissue lysate and separated from the RNA that they might otherwise degrade over time.

[2] = system: total RNase activity in liver lysate; test: RNaseAlert fluorescent assay, liver lysate; assay type: biochemical, mouse; settings: heated + 2.9 mM Ap5A
Procedure: as §1

[3] = system: total RNase activity in thymus lysate; test: RNaseAlert fluorescent assay, thymus lysate; assay type: biochemical, mouse; settings: heated + 2.9 mM Ap5A
Procedure: as §1

[4] = system: total RNase activity in kidney lysate; test: RNaseAlert fluorescent assay, kidney lysate; assay type: biochemical, mouse; settings: heated + 2.9 mM Ap5A
Procedure: as §1

diluted liver lysate = settings: 5 mm edta, liver lysate 1:5, e. coli total rna, room temperature 5.5 min
Procedure: Tissues (5 mg) were dounced in 50 ul of non-denaturing, neutral ph buffer (24 mm hepes, ph 7.2, 50 mm nac1, 1 mm mgc12). Diluted tissue lysates (pancreas 1:20,000; liver 1:5) or 5 pg/ul bovine rnase a were pre-incubated with 0.2u/ul rip, 50 mm citrate or 5 mm edta for 30 sec. A total of 100 pg/ul e. Coli total rna was then added to the mixture and incubated at room temperature for an additional 4 min (FIG. 1., Lanes 1-5) or 5.5 min (lanes 6&7). […] The sample (1 ul) was analyzed by bioanalyzer 2100 after separation on an ma labchip.

RNase A [5] = test: Salt-based inhibition of RNase activity (RNaseAlert); assay type: biochemical, bovine; settings: increasing salt concentrations, fluorescence 490/520 nm
RNase A [6] = target: T1, RNase A (Bos taurus, UniProt P61823); test: Radiolabeled RNA probe degradation gel assay, RNase A; assay type: biochemical
T1 sequence (P61823 27-150): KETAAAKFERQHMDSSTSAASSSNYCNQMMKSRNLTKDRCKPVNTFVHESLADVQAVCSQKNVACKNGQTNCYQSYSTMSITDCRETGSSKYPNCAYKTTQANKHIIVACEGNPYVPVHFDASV
Procedure: (§2) The activity of an anti-nuclease cocktail is readily determined using radiolabeled RNA or DNA to detect the inhibition of nuclease by anti-nuclease antibodies in the anti-nuclease cocktail. […] Assay buffer, nuclease and an anti-nuclease cocktail are then added to 0.5 ml microfuge tubes. A mixture comprising assay buffer, RNA or DNA and radiolabeled RNA or DNA is added to the microfuge tubes, and the tubes are vortexed and microfuged. After incubation of the tubes at 37° C. for 30 minutes, a portion of the tube contents is removed and placed into gel loading buffer. After mixing, the combination is loaded onto a gel, typically a 8M urea/5% acrylamide gel, which is exposed to film.
(§3) Radiolabeled RNA was used to detect the inhibition of RNase A, RNase T1, and RNase 1 by specific antibodies.
(§4) The “MIX” was prepared by combining 10× Assay Buffer (0.9 μl/rxn), 5 mg/ml yeast RNA (0.4 μl/rxn), ^32P-labeled β actin RNA (1 μl/rxn), and nuclease-free H2O (6.7 μl/rxn), for a total of 9 μl/rxn.
(§5) 1× Assay Buffer was added first. Then Specific RNase Cocktail, Specific Anti-RNase Cocktail and MIX were added. The tubes are vortexed and microfuged, then incubated at 37° C. for 30 min (Table 9).
(§6) At the end of the incubation time, 10 μl of solution was removed from the tube and placed into 10 μl Gel Loading Buffer II. The combination was mixed thoroughly and loaded onto a 8M urea/5% acrylamide gel. The gel was exposed to film for 30 min. at −80° C. with an intensifying screen.

RNase A, 1, and T1 = test: Anti-RNase antibodies / Specific Anti-RNase Cocktail with added non-antibody inhibitor; assay type: biochemical; settings: 0.1–0.5% SDS added to cocktail
Procedure: as §2, §3, §4, §5, §6

diluted pancreas lysate = test: Intactness of total RNA (RNA LabChip), diluted pancreas lysate; assay type: biochemical, mouse; settings: 1% SDS, pancreatic lysate 1:20,000, mouse liver total RNA, 25 C 4 min
Procedure: A total of 100 pg/ul e. […].
Pancreatic lysate (0.1 mg/ml) was diluted 1:20,000 in 24 mM Hepes, pH 7.2, 50 mM NaCl, 1 mM MgCl2 and pre-incubated with either 1% SDS or 6.25 mM OVA for 30 s prior to the addition of 2 ug mouse liver total RNA. Reactions were incubated at 25 C for an additional 4 min, quenched, and analyzed on an RNA LabChip.
Mouse pancreatic tissue (5 mg) was disrupted in 50 ul of 24 mM Hepes, pH 7.2, 50 mM NaCl, 1 mM MgCl2. The diluted lysate (1:20,000) was pre-incubated with 50 uM Benzopurpurin B (BpB) for 30 sec and then added to 100 ng/ul mouse liver total RNA (Ambion) and incubated at 23 C for an additional 4 min. Samples were quenched in a guanidinium lysis buffer, and the RNA purified via MEGAclear™ MAG-96 and eluted with 20 ul nuclease-free water. […] These experiments were conducted in the same fashion except that 100 uM BpB was employed. The sample (1 ul) was analyzed by 2100 BioAnalyzer software (Agilent) after separation on an RNA LabChip.
Mouse pancreatic tissue (5 mg) was dounced in 50 ul of 24 mM Hepes, pH 7.2, 50 mM NaCl, 1 mM MgCl2. A diluted lysate (1:20,000) was pre-incubated with 100 uM BpB or the analog Benzopurpurin 4B (Bp4B) for 30 sec and then added to 100 ng/ul mouse liver total RNA (Ambion) and incubated at 23 C for an additional 4 min. Samples were quenched in a guanidinium lysis buffer, and the RNA purified via MEGAclear™ MAG-96 and eluted with 20 ul nuclease-free water. The sample (1 ul) was analyzed by 2100 BioAnalyzer software (Agilent) after separation on an RNA LabChip.
Pancreatic tissue (5 mg) was dounced in 50 ul of 24 mM Hepes, pH 7.2, 50 mM NaCl, 1 mM MgCl2. The lysate was diluted (1:20,000) and then pre-incubated with 200 uM of 467929. […] All samples were pre-incubated for 30 sec before being added to 100 ng/ul mouse liver total RNA (Ambion) and incubated at 23C for an additional 4 min. The RNA was then immediately purified via MEGAclear™ MAG-96 and eluted with 20 ul nuclease-free water. The recovered RNA (1 ul) was analyzed by 2100 BioAnalyzer software after separation on an RNA LabChip.

RNase T1 = target: T2, RNase T1 (Aspergillus oryzae, UniProt P00651); test: Radiolabeled RNA probe degradation gel assay, RNase T1; assay type: biochemical; settings: 2.5 to 5 ug of heparin
T2 sequence (P00651 27-130): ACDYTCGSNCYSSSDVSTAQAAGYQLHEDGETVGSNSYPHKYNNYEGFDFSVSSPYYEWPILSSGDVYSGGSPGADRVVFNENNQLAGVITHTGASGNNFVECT
Procedure: The activity of anti-nuclease antibodies is readily determined using radiolabeled RNA or DNA to detect the inhibition of RNase or DNase by the anti-nuclease antibodies. In general, the nuclease and anti-nuclease antibody are separately diluted, typically in 1× assay buffer. Assay buffer, nuclease and anti-nuclease antibody are then added to 0.5 ml microfuge tubes. For assaying anti-RNase activity, a mixture comprising assay buffer, RNA and radiolabeled RNA is added to the microfuge tubes. The “MIX” of assay buffer, RNA and radiolabeled RNA is generally prepared by combining 10× Assay Buffer (0.9 μl/rxn), 5 mg/ml yeast RNA (0.4 μl/rxn), ^32-β actin RNA (1 μl/rxn), and nuclease-free H2O (6.7 μl/rxn) for a total of 9 μl/rxn. The tubes are vortexed and microfuged, then incubated at 37° C. for 30 minutes. After incubation, a portion of the tube contents is removed and placed into gel loading buffer. Then the tube contents and the gel loading buffer are mixed, and the combination is loaded onto a gel, typically a 8M urea/5% acrylamide gel, which is exposed to film. […]
The activity of an anti-nuclease cocktail is readily determined using radiolabeled RNA or DNA to detect the inhibition of nuclease by anti-nuclease antibodies in the anti-nuclease cocktail. […]

In the case of `Nc1ncnc2c1ncn2[C@@H]1O[C@H](COP(=O)(O)OP(=O)(O)OP(=O)(O)OP(=O)(O)OP(=O)(O)OC[C@H]2O[C@@H](n3cnc4c(N)ncnc43)[C@H](O)[C@@H]2O)[C@@H](O)[C@H]1O` [Ap5A], the “% Inhibition” value ([1]; Pancreas + 232 uM Ap5A) is reported as 44.3%, the Slope/sec ([1]; Pancreas + 232 uM Ap5A) is reported as 13.58 and the “% Inhibition” value ([1]; Pancreas + 1.3 mM Ap5A) is reported as 87.5%. The Slope/sec ([1]; Pancreas + 1.3 mM Ap5A) was 3.05, the “% Inhibition” value ([1]; Pancreas + 2.9 mM Ap5A) was 97.7% and the Slope/sec ([1]; Pancreas + 2.9 mM Ap5A) was 0.55. For the same compound, the “% Inhibition” value [2] was 97.2%, the Slope/sec [2] was 0.46 and the “% Inhibition” value [3] was 88.5%. For the same compound, the Slope/sec [3] was 0.33, the “% Inhibition” value [4] was 98.9% and the Slope/sec [4] was 0.02.
For `O=C(O)CN(CCN(CC(=O)O)CC(=O)O)CC(=O)O` [EDTA, ethylenediamine tetraacetic acid], the “protection of total RNA from degradation” value (diluted liver lysate) was “significant protection”.
With `O=C([O-])CC(O)(CC(=O)[O-])C(=O)[O-].[Na+].[Na+].[Na+]` [NaCitrate] the “effect on RNase A activity” value (RNase A [5]) was “Inhibits”.
For `[Cl-].[Na+]` [NaCl], the “effect on RNase A activity” value (RNase A [5]) was “inhibits”.
In the case of `CCCCCCCCCCCCOS(=O)(=O)[O-].[Na+]` [SDS, sodium dodecyl sulfate], the “concentration that inhibited activity of RNase A” value (RNase A [6]; 50 pg of RNase A) is reported as 0.25% SDS inhibited activity of 50 pg of RNase A, the “effect on anti-RNase A, 1, and T1 action of Specific Anti-RNase Cocktail” value (RNase A, 1, and T1) is reported as “Addition of 0.1–0.5% SDS to Specific Anti-RNase Cocktail strengthened anti-” and the “protection of RNA from degradation” value (diluted pancreas lysate) is reported as “help remedy RNA degradation”.
For heparin, the “effect on activity of RNases A” value (RNase A [6]; 2.5 to 5 ug of heparin) was “*This amount of heparin did not effect the activities of RNases A and Rnases T1” and the “effect on activity of Rnases T1” value (RNase T1) was “*This amount of heparin did not effect the activities of RNases A and Rnases T1”.
